In article PMC8230565, “Bisavenathramide Analogues as Nrf2 Inductors and Neuroprotectors in In Vitro Models of Oxidative Stress and Hyperphosphorylation” (Antioxidants, 2021):

Key:
[1] = molecular target: AChE (Electrophorus electricus) (Electrophorus electricus, UniProt O42275); assay: Acetylcholinesterase inhibition (Ellman's method); type: biochemical; conditions: for inhibition at 10 µM: 10 μM compound, read-out: % Inhibition of EeAChE at 10 μM; for IC50: n in brackets, read-out: IC50 (EeAChE)
AChE (Electrophorus electricus), sequence (O42275 24-633): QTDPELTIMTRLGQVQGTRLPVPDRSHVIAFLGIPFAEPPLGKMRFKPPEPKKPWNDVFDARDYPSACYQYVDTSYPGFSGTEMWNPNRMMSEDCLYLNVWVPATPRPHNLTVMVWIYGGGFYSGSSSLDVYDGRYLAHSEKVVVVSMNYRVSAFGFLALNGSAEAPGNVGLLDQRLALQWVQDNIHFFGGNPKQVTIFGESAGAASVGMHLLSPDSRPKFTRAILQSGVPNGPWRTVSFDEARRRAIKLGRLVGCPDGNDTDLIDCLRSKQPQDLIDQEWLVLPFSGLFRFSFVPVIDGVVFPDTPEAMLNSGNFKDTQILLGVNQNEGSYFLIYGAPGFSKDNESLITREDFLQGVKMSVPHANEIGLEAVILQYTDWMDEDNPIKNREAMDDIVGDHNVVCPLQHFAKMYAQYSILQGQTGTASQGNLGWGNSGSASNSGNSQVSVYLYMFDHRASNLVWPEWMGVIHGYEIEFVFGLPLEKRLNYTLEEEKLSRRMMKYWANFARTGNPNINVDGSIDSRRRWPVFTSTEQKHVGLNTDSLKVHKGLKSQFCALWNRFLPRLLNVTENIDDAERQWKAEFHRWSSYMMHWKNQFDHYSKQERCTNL
Procedure: Ellman’s method was employed to determine the inhibitory capacity of the compounds against AChE (Electrophorus electricus). The compounds were studied at 10 μM concentration, at room temperature, using PBS (0.1 M, pH 8) as solvent. Transparent 48-well microplates (COSTAR 3548) were used and, in each one, a blank was included. The compounds were incubated with the enzyme (0.09 U/mL) and with DTNB (0.35 mM) for 10 min. Afterwards, the enzyme substrate acetylthiocholine (0.35 mM) was added to a final volume of 1 mL. The microplate was incubated at room temperature for 15 min. Then, the absorbance was measured at 420 nm using the microplate reader FluoStar Optima (BMG Labtech, Ortenberg, Baden-Württemberg, Germany). The enzymatic activity was calculated by subtracting the blank absorbance from the sample absorbance and dividing the result by the absorbance of the maximum activity subtracted from blank absorbance, and the result was multiplied by one hundred to give a percentage. The inhibitory activity was calculated by subtracting the enzymatic activity from one hundred. Selected compounds were assayed at 0.3, 1, 3, 10, and 30 μM concentrations to obtain inhibition curves. The results were plotted versus concentration to obtain IC50 values through sigmoidal non-lineal adjustment. All the experiments were performed at least in triplicate.
Bisavenanthramide B-6 and heliotropamide A have been identified as acetylcholinesterase inhibitors. This precedent, coupled with our interest in the potential characterization of our compounds as multitarget-directed ligands, led us to investigate them as inhibitors of this enzyme, an important anti-Alzheimer target.

[2] = test system: neuroblastoma SHSY5Y cells; assay: Cytotoxicity in SHSY5Y cells (MTT reduction); type: cell-based; conditions: for LD50: MTT reduction
Procedure: SH-SY5Y cells (ECACC 94030304, Porton Down, Salisbury, UK), from passages between 4 and 16 after defreezing, were maintained in a MEM/F12 containing […] nonessential amino acids and supplemented with 10% fetal bovine serum (FBS), glutamine 1 mM, 50 units/mL of penicillin, and 50 μg/mL of streptomycin (GIBCO, Madrid, Spain). Cells were harvested in a […] flask and incubated at 37 °C with wet atmosphere and 5% CO2, carrying out passages 1:4 twice a week. For neuroprotection experiments, cells were seeded in 96-well plates at a density of 60,000 cells/well. For the toxicity experiments, cells were treated with the compounds under assay before reaching confluence, in MEM/F12 with 1% FBS.
Due to their presumed electrophilicity, the neurotoxicity of our compounds was investigated by investigating their influence on cell viability in the neuroblastoma SHSY5Y cell line prior to other studies in cell cultures. […] It is relevant to note that, despite their reputation for toxicity, interest in covalent drugs has undergone a renaissance, and about 30% of the recently marketed drugs belong to this class.

Nrf2 = Nrf2 induction, luciferase assay in AREc32 cells; type: cell-based; conditions: Arec32, 24 h, read-out: CD (concentration that doubles luciferase activity)
Procedure: AREc32 cells (kindly shared by Dr. Professor Ronald C. Wolf, University of Dundee, Dundee, UK) were grown in Dulbecco’s modified Eagle medium (DMEM) with glutamax, supplemented with 10% fetal bovine serum (FBS), 1% of antibiotics penicillin–streptomycin, and geneticin (0.8 mg/mL, G418) (GIBCO, Madrid, Spain). Cells were harvested in a […] flask with 11 mL of the specified medium, incubated at 37 °C and 5% CO2, and they were transferred to a new flask every 4–6 days, when the confluence was around 80%. Cells were seeded in 96-well white plates (20,000 cells/well) using 100 μL/well. After 24 h, cells were treated with compounds at desired concentrations (1, 5, 10, 15 μM) for 24 h, including tert-butyl hydroquinone (TBHQ, 10 μM) as a positive control. Another 24 h later, luciferase activity was measured through a bioluminescence assay using a “Luciferase assay system” (Promega E1500, Madison, WI, USA), following the protocol given by the provider, and quantifying luminescence in an Orion II microplate luminometer (Berthold, Germany). Measurements were performed by duplicate, and the values were normalized to basal luminescence considered as 1. Nrf2 induction potency was expressed as CD values, i.e., the concentrations required to double the luciferase activity, and are calculated from dose–response curves generated by plotting fold induction of control conditions vs. compound concentration, and fitted by non-linear regression and data interpolated to value 2.
The ability of our compounds to induce Nrf2 was evaluated in the AREc32 cell line, an MCF7 stable clone that is transfected with eight copies of the luciferase reporter gene immediately after the ARE sequence. Therefore, Nrf2 activation and the subsequent transcription of the genes dependent on the ARE element also leads to expression of luciferase, which can be quantitated using a luminescence assay. AREc32 cells were incubated for 24 h with 0.3, 3, 10, 30, and 60 μM concentrations of compounds 3, and a luminescence measurement allowed CD values to be obtained. This parameter characterizes the Nrf2-inducing ability of each compound and represents the concentration required to double the luciferase activity compared to its basal expression.

SH-SY5Y cells = assay: Superoxide production (DHE) in SH-SY5Y cells under R/O; type: cell-based; conditions: 1 and 10 µM
Procedure: To evaluate superoxide production, we used the fluorescent dye dihydroethidium (DHE). SH-SY5Y cells were seeded in 96-well clear-bottom black plates (6 × 10^4 cells/well). After 24 h, cells were treated with compound 3i at the desired concentrations for 24 h. Thereafter, treatments were eliminated and cells were loaded with DHE (20 μM) for 45 min. […] Fluorescence was evaluated in a Nikon T1000 fluorescence microscope at 490/630 excitation/emission wavelengths, respectively. Images were quantitated using Fiji software, and data are expressed as the increase after 6 h exposure to ROS generator, normalized to basal conditions as 100% increase.
To further evaluate its mechanism of action, and considering the importance of exacerbated oxidative stress in neurodegenerative diseases, we evaluated its capacity to reduce free radical species production using the above-mentioned R/O toxic combination to generate ROS and measure the influence of 3i in the total ROS production by using the H2DCFDA dye, and also the specific superoxide production by using the selective dye dihydroetidium (DHE). […] This reduction might be related to a combination of direct scavenger effect and an increased expression of Nrf2-dependent antioxidant genes, such as HO-1.

| Compound | inhibition at 10 µM [1] [%] | IC50 [1] [µM] | LD50 [2] [µM] | EC (2-fold luciferase activity) (Nrf2) [µM] | toxicity assessment [2] | superoxide production (DHE) (SH-SY5Y cells) |
| --- | --- | --- | --- | --- | --- | --- |
| COC(=O)C1=C(C)N(Cc2ccccc2)C(=O)/C1=C\c1ccc(OC)cc1 [Compound 3b, Methyl (Z)-1-Benzyl-4-(4-methoxybenzylidene)-2-methyl-5-oxo-4,5-dihydro-1H-pyrrole-3-carboxylate] | 36.7 | 29.7 ± 3 | >100 | 18 ± 1.84 | – | – |
| COC(=O)C1=C(C)N(Cc2ccccc2)C(=O)/C1=C\c1ccc(Cl)cc1 [Compound 3c, Methyl (Z)-1-Benzyl-4-(4-chlorobenzylidene)-2-methyl-5-oxo-4,5-dihydro-1H-pyrrole-3-carboxylate] | 33.5 | – | – | 15 ± 0.8 | too toxic | – |
| COC(=O)C1=C(C)N(CCc2ccccc2)C(=O)/C1=C\c1ccc(OCc2ccccc2F)c(OC)c1 [Compound 3j, Methyl (Z)-4-[4-((2-Fluorobenzyl)oxy)-3-methoxybenzylidene]-2-methyl-5-oxo-1-phenethyl-4,5-dihydro-1H-pyrrole-3-carboxylate] | 16 | – | >100 | 11.9 ± 2.83 | – | – |
| COC(=O)C1=C(C)N(CCc2ccccc2)C(=O)/C1=C\c1ccc2c(c1)OCO2 [Compound 3d, Methyl (Z)-4-(Benzo[d](1,3)dioxol-5-ylmethylene)-2-methyl-5-oxo-1-phenethyl-4,5-dihydro-1H-pyrrole-3-carboxylate] | 25.2 | – | >100 | 17.9 ± 8.58 | – | – |
| COC(=O)C1=C(C)N(CCc2ccccc2)C(=O)/C1=C\c1ccc(OC)cc1OC [Compound 3e, Methyl (Z)-4-(2,4-Dimethoxybenzylidene)-2-methyl-5-oxo-1-phenethyl-4,5-dihydro-1H-pyrrole-3-carboxylate] | 24.3 | – | >100 | 10.4 ± 0.8 | – | – |
| COC(=O)C1=C(C)N(Cc2ccccc2)C(=O)/C1=C\c1ccccc1 [Compound 3a, Methyl (Z)-1-Benzyl-4-benzylidene-2-methyl-5-oxo-4,5-dihydro-1H-pyrrole-3-carboxylate] | 27.4 | – | 63.7 ± 12.8 | 30.2 ± 1.89 | too toxic | – |
| COC(=O)C1=C(C)N(CCc2ccc(OC)c(OC)c2)C(=O)/C1=C\c1ccc(OCc2ccccc2Cl)c(OC)c1 [Compound 3n, Methyl (Z)-4-[4-((2-Chlorobenzyl)oxy)-3-methoxybenzylidene]-1-(3,4-dimethoxyphenethyl)-2-methyl-5-oxo-4,5-dihydro-1H-pyrrole-3-carboxylate] | 17.6 | – | >100 | 14.3 ± 3.89 | – | – |
| COC(=O)C1=C(C)N(CCc2ccccc2)C(=O)/C1=C\c1cc(OC)c(OC)cc1OC [Compound 3f, Methyl (Z)-2-Methyl-5-oxo-1-phenethyl-4-(2,4,5-trimethoxybenzylidene)-4,5-dihydro-1H-pyrrole-3-carboxylate] | 29.3 | – | >100 | 31.1 ± 6.21 | – | – |
| COC(=O)C1=C(C)N(CCc2ccccc2)C(=O)/C1=C\c1ccc(OCc2ccccc2Cl)c(OC)c1 [Compound 3k, Methyl (Z)-4-[4-((2-Chlorobenzyl)oxy)-3-methoxybenzylidene]-2-methyl-5-oxo-1-phenethyl-4,5-dihydro-1H-pyrrole-3-carboxylate] | 40.1 | 22.4 ± 3.2 | >100 | < 10 | – | – |
| COC(=O)C1=C(C)N(CCc2ccccc2)C(=O)/C1=C\c1ccc(OC)c(O)c1 [Compound 3h, Methyl (Z)-4-(3-Hydroxy-4-methoxybenzylidene)-2-methyl-5-oxo-1-phenethyl-4,5-dihydro-1H-pyrrole-3-carboxylate] | 24.2 | – | >100 | 36.1 ± 418 | – | – |
| COC(=O)C1=C(C)N(CCc2ccccc2)C(=O)/C1=C\c1ccc(O)c(O)c1 [Compound 3i, Methyl (Z)-4-(3,4-Dihydroxybenzylidene)-2-methyl-5-oxo-1-phenethyl-4,5-dihydro-1H-pyrrole-3-carboxylate] | 27.2 | – | 92.8 ± 4.6 | < 10 | suitable toxicity profile | reduce superoxide production at both concentrations |
| COC(=O)C1=C(C)N(CCc2ccc(OC)c(OC)c2)C(=O)/C1=C\c1ccc(OCc2ccc(Cl)cc2)c(OC)c1 [Compound 3m, Methyl (Z)-4-[4-((4-Chlorobenzyl)oxy)-3-methoxybenzylidene]-1-(3,4-dimethoxyphenethyl)-2-methyl-5-oxo-4,5-dihydro-1H-pyrrole-3-carboxylate] | 31.8 | – | >100 | 21.4 ± 5.72 | – | – |
| COC(=O)C1=C(C)N(CCc2ccccc2)C(=O)/C1=C\c1c[nH]c2ccccc12 [Compound 3o, Methyl (Z)-4-((1H-Indol-3-yl)methylene)-2-methyl-5-oxo-1-phenethyl-4,5-dihydro-1H-pyrrole-3-carboxylate] | 39.8 | 12.5 ± 1.4 | >100 | 36 ± 10.6 | – | – |
| COC(=O)C1=C(C)N(CCc2ccccc2)C(=O)/C1=C\c1cc(OC)c(OC)c(OC)c1 [Compound 3g, Methyl (Z)-2-Methyl-5-oxo-1-phenethyl-4-(3,4,5-trimethoxybenzylidene)-4,5-dihydro-1H-pyrrole-3-carboxylate] | 11.6 | – | >100 | – | – | – |
| COC(=O)C1=C(C)N(CCc2ccccc2)C(=O)/C1=C\c1ccc(OCc2ccc(Cl)cc2)c(OC)c1 [Compound 3l, Methyl (Z)-4-[4-((4-Chlorobenzyl)oxy)-3-methoxybenzylidene]-2-methyl-5-oxo-1-phenethyl-4,5-dihydro-1H-pyrrole-3-carboxylate] | 26.2 | – | >100 | 14 ± 4.45 | – | – |
